# According to patent US20230181503A1, “FEED ADDITIVE” (LUCTA, S.A., priority 2020, published 2023):
# Tested on: IPEC-J2 cells (pig enterocytes)
# Assay: Trans-epithelial electrical resistance (TEER) of IPEC-J2 monolayer
# Format: cell-based
# Conditions: formulations 50 μg/mL, genistein 50 μM
# Description: Formulation C with HT:MA:OA at weight ratio 11:50:23 (50 μg/mL) and formulation D with HT:MA:OA at weight ratio 12:50:15 (50 μg/mL) were also tested on a cell line of pig enterocytes (IPEC-J2), at different conditions. IPEC-J2 cells were seeded into a permeable transwells membrane insert (6.5 mm diameter, 0.4 μm pore size, 0.33 cm2, polyester, Costar) at 1×10^5 cells/cm^2 to form a confluent monolayer within 4 days. Medium was replaced 48 h post-seeded and products were added on the apical side. On day 3 post-seeded, cells were treated with LPS (50 ng/mL) on the apical side and 24 h post-LPS stimulation epithelial cell integrity was assessed through the measurement of trans-epithelial electrical resistance (TEER) using a Millicell ERS-2 Voltohmmeter (Millipore, Billerica, Mass.). For each condition, triplicates were carried out in three independent experiments. At the end of incubation apical and basal media were eliminated and RNAlater solution (1 mL/well) was added to the cells for RNA stabilization and storage. Total RNA was extracted using RNA Mini Kit columns from Ambion (Life technologies, Carlsbad, Calif.) and stored at −80° C. for subsequent retrotranscription and quantitative RT-PCR. The extraction of total RNA was carried out using PureLink™ RNA Mini Kit according to the manufacturer's protocol. […]
compound,measurement,setting,value
O=c1c(-c2ccc(O)cc2)coc2cc(O)cc(O)c12 [Genistein],TEER relative to DMSO control,"IPEC-J2, + LPS 50 ng/mL, 24 h post-LPS, LPS alone = 61.7",107%
same,TEER relative to DMSO control,"IPEC-J2, without LPS, Control (DMSO) = 100",129%
